Like-named read-outs stand apart in the source and are kept apart here.
Tests used:
[1] = system: 229E human corona virus (hCoV); test: 229E live virus assay (CPE, ATPlite readout in MRC-5 cells); type: cell-based, hCoV-229E; conditions: Human coronavirus 229E, MRC5, 144 h, MOI 0.05, 6 days at 34° C., run in duplicate
[2] = target: SARS-CoV-2 3CL-protease (Severe acute respiratory syndrome coronavirus 2, UniProt P0DTD1); test: SARS-CoV-2 3C-like (3CL) protease fluorescence assay (FRET); type: biochemical; conditions: 30 min preincubation, run in duplicate
[3] = recombinant SARS-CoV-2 3CL-protease 10 nM, read-out: FRET IC50

Compound | EC50 [1] [nM] | IC50 [2, 3] [nM] | IC50 ([2]; FRET IC50, recombinant SARS-CoV-2 3CL-protease 10 nM) [nM]
CC(C)C[C@@H](C(=O)N1C[C@]2(C[C@H]1C#N)C(=O)Nc1ccccc12)N(C)C(=O)C(=O)Nc1ccc(F)cc1F [Example 1] | < 100 | – | –
N#C[C@@H]1C[C@@]2(CN1C(=O)[C@H](CC1CC1)NC(=O)C(=O)NC1(c3ccc(F)cc3F)CC1)C(=O)Nc1ccccc12 [Example 74] | < 100 | < 100 | –
CCCC[C@H](NC(=O)C(=O)Nc1ccc(F)cc1C(F)(F)F)C(=O)N1C[C@]2(C[C@H]1C#N)C(=O)Nc1ccccc12 [Example 75] | < 100 | < 100 | –
CCCC[C@H](NC(=O)C(=O)NC1(c2ccc(F)cc2F)CC1)C(=O)N1C[C@]2(C[C@H]1C#N)C(=O)Nc1ccccc12 [Example 76] | < 100 | < 100 | –
N#C[C@@H]1C[C@@]2(CN1C(=O)[C@H](CC1CC1)NC(=O)C(=O)Nc1ccc(F)cc1C(F)(F)F)C(=O)Nc1ccccc12 [Example 77] | < 100 | < 100 | –
Cc1cccc(C)c1NC(=O)C(=O)N[C@@H](CC(C)(C)C)C(=O)N1C[C@]2(C[C@H]1C#N)C(=O)Nc1ccccc12 [Example 84] | < 100 | < 100 | –
CC(C)(C)C[C@H](NC(=O)C(=O)Nc1ccc2cc(F)ccc2c1)C(=O)N1C[C@]2(C[C@H]1C#N)C(=O)Nc1ccccc12 [Example 85] | < 100 | < 100 | –
CC(C)(C)C[C@H](NC(=O)C(=O)NC1CCC1)C(=O)N1C[C@]2(C[C@H]1C#N)C(=O)Nc1ccccc12 [Example 87] | < 100 | – | –
CCC(C)NC(=O)C(=O)N[C@@H](CC(C)(C)C)C(=O)N1C[C@]2(C[C@H]1C#N)C(=O)Nc1ccccc12 (stereo partly drawn) [Example 88] | < 100 | < 100 | –
CC(C)(C)C[C@H](NC(=O)C(=O)Nc1cccc(F)c1)C(=O)N1C[C@]2(C[C@H]1C#N)C(=O)Nc1ccccc12 [Example 89] | < 100 | < 100 | –
CC(C)(C)C[C@H](NC(=O)C(=O)Nc1ccccc1F)C(=O)N1C[C@]2(C[C@H]1C#N)C(=O)Nc1ccccc12 [Example 90] | < 100 | < 100 | –
CC(C)(C)C[C@H](NC(=O)C(=O)Nc1c(F)cc(F)cc1F)C(=O)N1C[C@]2(C[C@H]1C#N)C(=O)Nc1ccccc12 [Example 92] | < 100 | < 100 | –
CC(C)(C)C[C@H](NC(=O)C(=O)Nc1ccc(F)cc1)C(=O)N1C[C@]2(C[C@H]1C#N)C(=O)Nc1ccccc12 [Example 93] | < 100 | < 100 | –
CC(C)(C)C[C@H](NC(=O)C(=O)Nc1ccc(F)cc1F)C(=O)N1C[C@]2(C[C@H]1C#N)C(=O)Nc1ccccc12 [Example 94] | < 100 | < 100 | –
CC(C)(C)C[C@H](NC(=O)C(=O)NC(C)(C)C)C(=O)N1C[C@]2(C[C@H]1C#N)C(=O)Nc1ccccc12 [Example 95] | < 100 | – | –
CC(C)(C)C[C@H](NC(=O)C(=O)Nc1ccc2ccccc2c1)C(=O)N1C[C@]2(C[C@H]1C#N)C(=O)Nc1ccccc12 [Example 96] | < 100 | < 100 | –
CC(C)(C)C[C@H](NC(=O)C(=O)Nc1ccccc1)C(=O)N1C[C@]2(C[C@H]1C#N)C(=O)Nc1ccccc12 [Example 104] | < 100 | – | –
CC(C)(C)C[C@H](NC(=O)C(=O)Nc1cnccc1C(F)(F)F)C(=O)N1C[C@]2(C[C@H]1C#N)C(=O)Nc1ccccc12 [Example 156] | – | < 100 | –
CC(C)(C)C[C@H](NC(=O)C(=O)Nc1cncc(C(F)(F)F)c1)C(=O)N1C[C@]2(C[C@H]1C#N)C(=O)Nc1ccccc12 [Example 157] | – | < 100 | –

Compound | EC50 [1] [nM] | IC50 [2, 3] [nM] | IC50 ([2]; FRET IC50, recombinant SARS-CoV-2 3CL-protease 10 nM) [nM]
CC(C)(C)C[C@H](NC(=O)C(=O)Nc1ccc(C(F)(F)F)nc1)C(=O)N1C[C@]2(C[C@H]1C#N)C(=O)Nc1ccccc12 [Example 158] | – | < 100 | –
CC(C)(C)C[C@H](NC(=O)C(=O)Nc1cccnc1C(F)(F)F)C(=O)N1C[C@]2(C[C@H]1C#N)C(=O)Nc1ccccc12 [Example 162] | – | < 100 | –
Cc1cccc(NC(=O)C(=O)N[C@@H](CC(C)(C)C)C(=O)N2C[C@]3(C[C@H]2C#N)C(=O)Nc2ccccc23)n1 [Example 163] | – | < 100 | –
CC(C)(C)C[C@H](NC(=O)C(=O)NC1(C)CCC1)C(=O)N1C[C@]2(C[C@H]1C#N)C(=O)Nc1ccccc12 [Example 164] | – | < 100 | –
CC(C)(C)C[C@H](NC(=O)C(=O)N[C@@H]1CC2CC[C@H](C2)C1)C(=O)N1C[C@]2(C[C@H]1C#N)C(=O)Nc1ccccc12 [Example 165] | – | < 100 | –
CC(C)(C)C[C@H](NC(=O)C(=O)Nc1ccc(C(F)(F)F)cc1C(F)(F)F)C(=O)N1C[C@]2(C[C@H]1C#N)C(=O)Nc1ccccc12 [Example 166] | – | < 100 | –
N#C[C@@H]1C[C@@]2(CN1C(=O)[C@H](CC1CC1)NC(=O)C(=O)Nc1ncccc1C(F)(F)F)C(=O)Nc1ccccc12 [Example 167] | – | < 100 | –
N#C[C@@H]1C[C@@]2(CN1C(=O)[C@H](CC1CC1)NC(=O)C(=O)Nc1cc(C(F)(F)F)ccn1)C(=O)Nc1ccccc12 [Example 168] | – | < 100 | –
N#C[C@@H]1C[C@@]2(CN1C(=O)[C@H](CC1CC1)NC(=O)C(=O)Nc1ccc(C(F)(F)F)cn1)C(=O)Nc1ccccc12 [Example 169] | – | < 100 | –
N#C[C@@H]1C[C@@]2(CN1C(=O)[C@H](CC1CC1)NC(=O)C(=O)Nc1cccc(C(F)(F)F)n1)C(=O)Nc1ccccc12 [Example 170] | – | < 100 | –
N#C[C@@H]1C[C@@]2(CN1C(=O)[C@H](CC1CC1)NC(=O)C(=O)Nc1ccncc1C(F)(F)F)C(=O)Nc1ccccc12 [Example 171] | – | < 100 | –
N#C[C@@H]1C[C@@]2(CN1C(=O)[C@H](CC1CC1)NC(=O)C(=O)Nc1cnccc1C(F)(F)F)C(=O)Nc1ccccc12 [Example 172] | – | < 100 | –
N#C[C@@H]1C[C@@]2(CN1C(=O)[C@H](CC1CC1)NC(=O)C(=O)Nc1cncc(C(F)(F)F)c1)C(=O)Nc1ccccc12 [Example 173] | – | < 100 | –
N#C[C@@H]1C[C@@]2(CN1C(=O)[C@H](CC1CC1)NC(=O)C(=O)Nc1ccc(C(F)(F)F)nc1)C(=O)Nc1ccccc12 [Example 174] | – | < 100 | –
N#C[C@@H]1C[C@@]2(CN1C(=O)[C@H](CC1CC1)NC(=O)C(=O)Nc1cccnc1C(F)(F)F)C(=O)Nc1ccccc12 [Example 175] | – | < 100 | –
N#C[C@@H]1C[C@@]2(CN1C(=O)[C@H](CC1CC1)NC(=O)C(=O)Nc1ccnc(C(F)(F)F)c1)C(=O)Nc1ccccc12 [Example 176] | – | < 100 | –
CC(C)(C)C[C@H](NC(=O)C(=O)Nc1ccncc1C(F)(F)F)C(=O)N1C[C@]2(C[C@H]1C#N)C(=O)Nc1ccccc12 [Example 177] | – | < 100 | –
CC(C)(C)C[C@H](NC(=O)C(=O)C1CC1)C(=O)N1C[C@]2(C[C@H]1C#N)C(=O)Nc1ccccc12 [Example 178] | – | 100 to 1000 | –
CC(C)(C)C[C@H](NC(=O)C(=O)OC(C)(C)C)C(=O)N1C[C@]2(C[C@H]1C#N)C(=O)Nc1ccccc12 [Example 188] | – | 100 to 1000 | –

Compound | EC50 [1] [nM] | IC50 [2, 3] [nM] | IC50 ([2]; FRET IC50, recombinant SARS-CoV-2 3CL-protease 10 nM) [nM]
CC(C)(C)C[C@H](NC(=O)C(=O)OCc1ccccc1)C(=O)N1C[C@]2(C[C@H]1C#N)C(=O)Nc1ccccc12 [Example 189] | – | > 1000 | –
N#C[C@@H]1C[C@@]2(CN1C(=O)[C@H](CC1CC1)NC(=O)C(=O)Nc1c(Cl)cccc1C(F)(F)F)C(=O)Nc1ccccc12 [Example 194] | – | < 100 | –
CC(C)(C)C[C@H](NC(=O)C(=O)Nc1ccccc1C(F)(F)F)C(=O)N1C[C@]2(C[C@H]1C#N)C(=O)Nc1ccccc12 [Example 195] | – | < 100 | –
CC(C)(C)C[C@H](NC(=O)C(=O)Nc1c(F)cccc1C(F)(F)F)C(=O)N1C[C@]2(C[C@H]1C#N)C(=O)Nc1ccccc12 [Example 196] | – | < 100 | –
CC(C)(C)C[C@H](NC(=O)C(=O)Nc1c(Cl)cccc1C(F)(F)F)C(=O)N1C[C@]2(C[C@H]1C#N)C(=O)Nc1ccccc12 [Example 197] | – | < 100 | –
CN(C(=O)C(=O)Nc1ccc(C(F)(F)F)cc1C(F)(F)F)[C@@H](CC1CC1)C(=O)N1C[C@]2(C[C@H]1C#N)C(=O)Nc1ccccc12 [Example 198] | – | – | < 100
N#C[C@@H]1C[C@@]2(CN1C(=O)[C@H](CC1CC1)NC(=O)C(=O)Nc1ccc(C(F)(F)F)cc1C(F)(F)F)C(=O)Nc1ccccc12 [Example 199] | – | < 100 | –
N#C[C@@H]1C[C@@]2(CN1C(=O)[C@H](CC1CC1)NC(=O)C(=O)Nc1c(F)cccc1C(F)(F)F)C(=O)Nc1ccccc12 [Example 200] | – | < 100 | –
Cc1cccc(C)c1NC(=O)C(=O)N[C@@H](CC(C)C)C(=O)N1C[C@]2(C[C@H]1C#N)C(=O)Nc1ccccc12 [Example 201] | – | < 100 | –
CCCC[C@H](NC(=O)C(=O)Nc1c(C)cccc1C)C(=O)N1C[C@]2(C[C@H]1C#N)C(=O)Nc1ccccc12 [Example 202] | – | < 100 | –
Cc1cccc(C)c1NC(=O)C(=O)N[C@@H](Cc1ccccc1)C(=O)N1C[C@]2(C[C@H]1C#N)C(=O)Nc1ccccc12 [Example 203] | – | < 100 | –
CC(C)(C)C[C@H](NC(=O)C(=O)Nc1c(Cl)cc(F)cc1Cl)C(=O)N1C[C@]2(C[C@H]1C#N)C(=O)Nc1ccccc12 [Example 204] | – | < 100 | –
N#C[C@@H]1C[C@@]2(CN1C(=O)[C@H](CC1CC1)NC(=O)C(=O)Nc1c(Cl)cc(Cl)cc1C(F)(F)F)C(=O)Nc1ccccc12 [Example 205] | – | < 100 | –
N#C[C@@H]1C[C@@]2(CN1C(=O)[C@H](CC1CC1)NC(=O)C(=O)Nc1c(C(F)(F)F)cncc1C(F)(F)F)C(=O)Nc1ccccc12 [Example 206] | – | < 100 | –
CC(C)(C)C[C@H](NC(=O)C(=O)Nc1c(C(F)(F)F)cncc1C(F)(F)F)C(=O)N1C[C@]2(C[C@H]1C#N)C(=O)Nc1ccccc12 [Example 207] | – | < 100 | –
N#C[C@@H]1C[C@@]2(CN1C(=O)[C@H](CC1CC1)NC(=O)C(=O)Nc1c(C(F)(F)F)cccc1C(F)(F)F)C(=O)Nc1ccccc12 [Example 208] | – | < 100 | –
N#C[C@@H]1C[C@@]2(CN1C(=O)[C@H](CC1CC1)NC(=O)C(=O)Nc1c(Cl)cc(F)cc1C(F)(F)F)C(=O)Nc1ccccc12 [Example 209] | – | < 100 | –
CC(C)(C)C[C@H](NC(=O)C(=O)Nc1c(C(F)(F)F)ccc(Cl)c1Cl)C(=O)N1C[C@]2(C[C@H]1C#N)C(=O)Nc1ccccc12 [Example 210] | – | < 100 | –

Source: US12643905B2, “Spiropyrrolidine derived antiviral agents” (priority 2021, dated 2026)
